Assays:
[1] = test system: ion channel of a Lymnaea stagnail neuron; experiment: Extracellular recording of neuron before and after applying Carbachol, normal distribution of standard deviations (apparatus of FIG. 9); type: cell-based; conditions: after applying 50 μM Carbachol; 10 seconds data; FIG. 13
Source text: FIG. 9 is a conceptual diagram showing a configuration of an apparatus comprising the above-described device for detecting physicochemical changes emitted by a biological sample, which is configured to measure and extract the ion channel activity of the biological sample. The apparatus is the same as the apparatus of FIG. 8, except that the normal distribution approximation section 103, the average/half-width calculation section 106 and the activity categorization section 109 are employed in place of the average calculation section 105 and the activity calculation section 108. Communications between each section are indicated by a dashed line or a solid line in FIG. 9. […]
Before and after 50 μM-concentration Carbachol is applied to a Lymnaea stagnail neuron, signals were obtained from the measurement section (signal source) 101, and the standard deviation of the signals was calculated in a manner similar to that of Example 1. […]

[2] = test system: ion channel of a Lymnaea stagnail neuron; experiment: Extracellular recording of neuron electrical signal at increasing Carbachol concentrations (apparatus of FIG. 8); type: cell-based; conditions: Carbachol 0, 0.1, 0.3, 1, 3, 10, 30 and 100 μM; 10 seconds time-series data; FIG. 12
Source text: FIG. 8 is a conceptual diagram showing a configuration of an apparatus comprising the above-described device for detecting physicochemical changes emitted by a biological sample, which is configured to measure and extract the ion channel activity of the biological sample. The apparatus comprises a measurement section (signal source) 101 comprising a device for detecting physicochemical changes emitted by the biological sample and measuring an action potential generated by a neuron, a unit standard deviation calculation section 102 for sampling a signal from the measurement section 101 and calculating the standard deviation of the signal, an average calculation section 105 for calculating the average of the obtained standard deviation, an activity calculation section 108 for calculating the ion channel activity of a cell from the average of the standard deviation output by the average calculation section 105, and a data displaying section 110 for displaying the calculated activity. Communications between each section are indicated by a dashed line or a solid line in FIG. 8. Note that the unit standard deviation calculation section 102, and the average calculation section 105, and the activity calculation section 108 may be representatively software programs which are recorded in a hard disk in a computer. The data displaying section 110 may be a CRT. […]

C[N+](C)(C)CCOC(N)=O [Carbachol]
average of the normal distribution of standard deviation values every 5 miliseconds [1]: 0.703 | ion channel activation (average of the standard deviation every 100 miliseconds) [2]: activated depending on the Carbachol concentration

— patent US7326384B2, “Method and apparatus for detecting physicochemical changes emitted by biological sample” (Matsushita Electric Industrial Co., Ltd., priority 2001, dated 2008)
